Target: T1, human full-length MKNK1 (Homo sapiens, UniProt Q9BUB5, T385D)
T1 construct: GST (N); purchased Carna Biosciences 02-145; host or cells: insect cells (baculovirus expression system)
Test: MKNK1 kinase high ATP assay (TR-FRET)
Type: biochemical
Conditions: for IC50: Table 1, MKNK1 kinase high ATP assay, 2 mM ATP, read-out: MKNK1 IC50
How it was run: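 Full-length human MKNK1 (T385D) preincubated 15 min at 22 °C with compound in HEPES pH 7.5/MgCl2/DTT buffer; reaction with 2 mM ATP (final) and 0.06 μM biotinylated peptide (final), 30 min at 22 °C.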

T1 sequence (Q9BUB5 1-424 isoform Q9BUB5-2 T344D): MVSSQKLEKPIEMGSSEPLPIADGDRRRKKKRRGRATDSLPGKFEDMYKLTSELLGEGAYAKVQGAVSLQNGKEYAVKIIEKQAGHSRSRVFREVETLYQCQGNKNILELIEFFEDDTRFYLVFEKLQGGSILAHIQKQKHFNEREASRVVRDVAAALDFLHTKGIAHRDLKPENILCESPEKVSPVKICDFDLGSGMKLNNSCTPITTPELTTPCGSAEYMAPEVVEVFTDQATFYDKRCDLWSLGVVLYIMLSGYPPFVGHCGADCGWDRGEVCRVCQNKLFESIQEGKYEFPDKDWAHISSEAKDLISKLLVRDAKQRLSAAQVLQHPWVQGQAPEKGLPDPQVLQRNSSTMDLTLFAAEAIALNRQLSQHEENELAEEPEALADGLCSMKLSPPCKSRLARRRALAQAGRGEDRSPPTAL

## COCCN(C)C(=O)[C@H]1CCc2c(sc3ncnc(Nc4cc5cn[nH]c5cc4F)c23)C1 [Example 222, (7S)-4-[(6-Fluoro-1H-indazol-5-yl)amino]-N-(2-methoxyethyl)-N-methyl-5,6,7,8-tetrahydro[1]benzothieno[2,3-d]pyrimidine-7-carboxamide]
  IC50: 3.2 nM

## COc1cc2[nH]ncc2cc1Nc1ncnc2sc3c(c12)CC[C@H](C(=O)N1CC=CC1)C3 [Example 206, 2,5-Dihydro-1H-pyrrol-1-yl{(7S)-4-[(6-methoxy-1H-indazol-5-yl)amino]-5,6,7,8-tetrahydro[1]benzothieno[2,3-d]pyrimidin-7-yl}methanone]
  IC50: 0.9 nM

## COc1cc2[nH]ncc2cc1Nc1ncnc2sc3c(c12)CC[C@H](C(=O)N(CCCN(C)C)Cc1ccccc1)C3 [Example 63, (7S)—N-Benzyl-N-[3-(dimethylamino)propyl]-4-[(6-methoxy-1H-indazol-5-yl)amino]-5,6,7,8-tetrahydro[1]benzothieno[2,3-d]pyrimidine-7-carboxamide]
  IC50: 0.2 nM

## CCN(C(=O)[C@H]1CCc2c(sc3ncnc(Nc4cc5cn[nH]c5cc4OC(C)C)c23)C1)C(C)C [Example 80, (7S)—N-Ethyl-N-(propan-2-yl)-4-{[6-(propan-2-yloxy)-1H-indazol-5-yl]amino}-5,6,7,8-tetrahydro[1]benzothieno[2,3-d]pyrimidine-7-carboxamide]
  IC50: 0.3 nM

## CN(C)C(=O)[C@H]1CCc2c(sc3ncnc(Nc4cc5cn[nH]c5cc4O[C@H]4CCOC4)c23)C1 [Example 280, (7S)—N,N-Dimethyl-4-({6-[(3S)-tetrahydrofuran-3-yloxy]-1H-indazol-5-yl}amino)-5,6,7,8-tetrahydro[1]benzothieno[2,3-d]pyrimidine-7-carboxamide]
  IC50: 1 nM

## COc1cc2[nH]ncc2cc1Nc1ncnc2sc3c(c12)CC[C@H](C(=O)N(CCC(=O)N(C)C)C1CC1)C3 [Example 56, (7S)—N-Cyclopropyl-N-[3-(dimethylamino)-3-oxopropyl]-4-[(6-methoxy-1H-indazol-5-yl)amino]-5,6,7,8-tetrahydro[1]benzothieno[2,3-d]pyrimidine-7-carboxamide]
  IC50: 0.3 nM

## CN(C)C(=O)[C@H]1CCc2c(sc3ncnc(Nc4cc5cn[nH]c5cc4Cl)c23)C1 [Example 182, (7S)-4-[(6-Chloro-1H-indazol-5-yl)amino]-N,N-dimethyl-5,6,7,8-tetrahydro[1]benzothieno[2,3-d]pyrimidine-7-carboxamide]
  IC50: 5.3 nM

## CC(C)Oc1cc2[nH]ncc2cc1Nc1ncnc2sc3c(c12)CC[C@H](C(=O)N1C[C@@H](O)[C@H](O)C1)C3 [Example 93, [(3R,4R)-3,4-Dihydroxypyrrolidin-1-yl][(7S)-4-{[6-(propan-2-yloxy)-1H-indazol-5-yl]amino}-5,6,7,8-tetrahydro[1]benzothieno[2,3-d]pyrimidin-7-yl]methanone]
  IC50: 0.1 nM

## CSc1cc2[nH]ncc2cc1Nc1ncnc2sc3c(c12)CC[C@H](C(=O)N1CC(N(C)C)C1)C3 [Example 285, [3-(dimethylamino)azetidin-1-yl][(7S)-4-{[6-(methylsulfanyl)-1H-indazol-5-yl]amino}-5,6,7,8-tetrahydro[1]benzothieno[2,3-d]pyrimidin-7-yl]methanone]
  IC50: 1.8 nM

## O=C([C@H]1CCc2c(sc3ncnc(Nc4cc5cn[nH]c5cc4F)c23)C1)N1CCOCC1 [Example 226, {(7S)-4-[(6-Fluoro-1H-indazol-5-yl)amino]-5,6,7,8-tetrahydro[1]benzothieno[2,3-d]pyrimidin-7-yl}(morpholin-4-yl)methanone]
  IC50: 7.8 nM

## CCOc1cc2[nH]ncc2cc1Nc1ncnc2sc3c(c12)CC[C@H](C(=O)N1CCCC1)C3 [Example 67, {(7S)-4-[(6-Ethoxy-1H-indazol-5-yl)amino]-5,6,7,8-tetrahydro[1]benzothieno[2,3-d]pyrimidin-7-yl}(pyrrolidin-1-yl)methanone]
  IC50: 0.3 nM

## CC(C)Oc1cc2[nH]ncc2cc1Nc1ncnc2sc3c(c12)CC[C@H](C(=O)N1C[C@@H](C)O[C@@H](C)C1)C3 [Example 160, [(2R,6S)-2,6-dimethylmorpholin-4-yl][(7S)-4-{[6-(propan-2-yloxy)-1H-indazol-5-yl]amino}-5,6,7,8-tetrahydro[1]benzothieno[2,3-d]pyrimidin-7-yl]methanone]
  IC50: 1.2 nM

## COc1cc2[nH]ncc2cc1Nc1ncnc2sc3c(c12)CC[C@H](C(=O)N1CCOCC1)C3 [Example 28, {(7S)-4-[(6-Methoxy-1H-indazol-5-yl)amino]-5,6,7,8-tetrahydro[1]benzothieno[2,3-d]pyrimidin-7-yl}(morpholin-4-yl)methanone]
  IC50: 0.3 nM
Table 2, ratio of the IC50-value of an R-enantiomer and its corresponding S-enantiomer
  Activity-Ratio MKNK1: 26.1

## CN(C)C(=O)[C@H]1CCc2c(sc3ncnc(Nc4cc5cn[nH]c5cc4OCCN4CCCCC4)c23)C1 [Example 113, (7S)—N,N-Dimethyl-4-({6-[2-(piperidin-1-yl)ethoxy]-1H-indazol-5-yl}amino)-5,6,7,8-tetrahydro[1]benzothieno[2,3-d]pyrimidine-7-carboxamide]
  IC50: 634 nM

## CN(C)C(=O)[C@H]1CCc2c(sc3ncnc(Nc4cc5cn[nH]c5cc4OCCNC(=O)CC(C)(C)C)c23)C1 [Example 272, (7S)-4-[(6-{2-[(3,3-Dimethylbutanoyl)amino]ethoxy}-1H-indazol-5-yl)amino]-N,N-dimethyl-5,6,7,8-tetrahydro[1]benzothieno[2,3-d]pyrimidine-7-carboxamide]
  IC50: 1.3 nM

## CCOc1cc2[nH]ncc2cc1Nc1ncnc2sc3c(c12)CC[C@H](C(=O)N1C[C@@H]2C[C@H]1CO2)C3 [Example 70, {(7S)-4-[(6-Ethoxy-1H-indazol-5-yl)amino]-5,6,7,8-tetrahydro[1]benzothieno[2,3-d]pyrimidin-7-yl}[(1S,4S)-2-oxa-5-azabicyclo[2.2.1]hept-5-yl]methanone]
  IC50: 0.4 nM

## C[C@H]1CN(C(=O)[C@H]2CCc3c(sc4ncnc(Nc5cc6cn[nH]c6cc5N(C)C)c34)C2)C[C@H](C)O1 [Example 239, [(7S)-4-{[6-(Dimethylamino)-1H-indazol-5-yl]amino}-5,6,7,8-tetrahydro[1]benzothieno[2,3-d]pyrimidin-7-yl][(2S,6S)-2,6-dimethylmorpholin-4-yl]methanone]
  IC50: 0.3 nM

## CC(C)N(C)c1cc2[nH]ncc2cc1Nc1ncnc2sc3c(c12)CC[C@H](C(=O)N(C)C)C3 [Example 99, (7S)—N,N-Dimethyl-4-({6-[methyl(propan-2-yl)amino]-1H-indazol-5-yl}amino)-5,6,7,8-tetrahydro[1]benzothieno[2,3-d]pyrimidine-7-carboxamide]
  IC50: 0.3 nM

## C[C@H]1COCCN1C(=O)[C@H]1CCc2c(sc3ncnc(Nc4cc5cn[nH]c5cc4OCCN(C)C)c23)C1 [Example 117, [(7S)-4-({6-[2-(Dimethylamino)ethoxy]-1H-indazol-5-yl}amino)-5,6,7,8-tetrahydro[1]benzothieno[2,3-d]pyrimidin-7-yl][(3S)-3-methylmorpholin-4-yl]methanone]
  IC50: 20 nM

## C[C@@H]1COCCN1C(=O)[C@H]1CCc2c(sc3ncnc(Nc4cc5cn[nH]c5cc4OCCN4CCCCC4)c23)C1 [Example 116, [(3R)-3-Methylmorpholin-4-yl][(7S)-4-({6-[2-(piperidin-1-yl)ethoxy]-1H-indazol-5-yl}amino)-5,6,7,8-tetrahydro[1]benzothieno[2,3-d]pyrimidin-7-yl]methanone]
  IC50: 1190 nM

— patent US20160297833A1, “THIENOPYRIMIDINES AS MKNK1 AND MKNK2 INHIBITORS” (BAYER PHARMA AKTIENGESELLSCHAFT, priority 2013, published 2016)
